# Measured values published in ChEMBL document CHEMBL1201862, “PubChem BioAssay data set” (2004).
#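 Results reflect a 48-hour exposure of cells in 96-well plates to compound at five concentrations. GI50: concentration for 50% inhibition of growth.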 Activity calls are given as the source filed them. No stated cut-off is given here; in the data, active = GI50 up to about 1.1 µM and inactive = higher.
# Columns and labels:
# Assay in all cases: DTP human tumour cell line panel, 48 h
# A498 = tested on: A498
# ACHN = tested on: ACHN
# EKVX = tested on: EKVX
# HCC 2998 = tested on: HCC 2998
# HCT-116 = tested on: HCT-116
# LOX IMVI = tested on: LOX IMVI
# M14 = tested on: M14
# MCF7 = tested on: MCF7
# MDA-MB-231 = tested on: MDA-MB-231
# MDA-MB-435 = tested on: MDA-MB-435
# MDA-N = tested on: MDA-N
# OVCAR-4 = tested on: OVCAR-4
# OVCAR-5 = tested on: OVCAR-5
# RXF 393 = tested on: RXF 393
# SF-295 = tested on: SF-295
# SNB-19 = tested on: SNB-19
# SW-620 = tested on: SW-620
# T47D = tested on: T47D
# UACC-257 = tested on: UACC-257
SMILES,GI50 (A498),GI50 (ACHN),GI50 (EKVX),GI50 (HCC 2998),GI50 (HCT-116),GI50 (LOX IMVI),GI50 (M14),GI50 (MCF7),GI50 (MDA-MB-231),GI50 (MDA-MB-435),GI50 (MDA-N),GI50 (OVCAR-4),GI50 (OVCAR-5),GI50 (RXF 393),GI50 (SF-295),GI50 (SNB-19),GI50 (SW-620),GI50 (T47D),GI50 (UACC-257)
Cc1ccc(NC(=O)CC(=O)N2N=C(N3CCCCC3)CC2c2ccccc2)cc1 (stereo unspecified),> 100 µM (inactive),> 100 µM (inactive),> 100 µM (inactive),> 100 µM (inactive),> 100 µM (inactive),> 100 µM (inactive),> 100 µM (inactive),> 100 µM (inactive),> 100 µM (inactive),> 100 µM (inactive),> 100 µM (inactive),> 100 µM (inactive),> 100 µM (inactive),> 100 µM (inactive),> 100 µM (inactive),> 100 µM (inactive),> 100 µM (inactive),> 100 µM (inactive),> 100 µM (inactive)
CC(C)=CCC[C@H](C)[C@H]1CC[C@@H](C)c2cc(O)c(C)cc21,16.6 µM (inactive),16.8 µM (inactive),17.6 µM (inactive),18.9 µM (inactive),18.4 µM (inactive),16.3 µM (inactive),18.4 µM (inactive),17.5 µM (inactive),18.2 µM (inactive),18.6 µM (inactive),17.4 µM (inactive),15.5 µM (inactive),16.1 µM (inactive),20.7 µM (inactive),16.9 µM (inactive),16.6 µM (inactive),23.1 µM (inactive),16.9 µM (inactive),17.4 µM (inactive)
O=C(n1c(=O)n(-c2ccc([N+](=O)[O-])cc2)c(=O)n1C(=O)C(Cl)(Cl)Cl)C(Cl)(Cl)Cl,> 100 µM (inactive),> 100 µM (inactive),> 100 µM (inactive),> 100 µM (inactive),> 100 µM (inactive),> 100 µM (inactive),> 100 µM (inactive),87.3 µM (inactive),> 100 µM (inactive),> 100 µM (inactive),> 100 µM (inactive),> 100 µM (inactive),> 100 µM (inactive),> 100 µM (inactive),> 100 µM (inactive),> 100 µM (inactive),> 100 µM (inactive),> 100 µM (inactive),> 100 µM (inactive)
CCOC(=O)c1c(N2CCOCC2)[nH]c(=O)c(C(c2ccco2)c2c(O)c(C(=O)OCC)c(N3CCOCC3)[nH]c2=O)c1O,> 100 µM (inactive),> 100 µM (inactive),> 100 µM (inactive),> 100 µM (inactive),> 100 µM (inactive),> 100 µM (inactive),> 100 µM (inactive),> 100 µM (inactive),> 100 µM (inactive),> 100 µM (inactive),> 100 µM (inactive),> 100 µM (inactive),> 100 µM (inactive),> 100 µM (inactive),> 100 µM (inactive),> 100 µM (inactive),> 100 µM (inactive),> 100 µM (inactive),> 100 µM (inactive)
N#CC(C#N)=CNC(N)=S,> 100 µM (inactive),> 100 µM (inactive),> 100 µM (inactive),> 100 µM (inactive),> 100 µM (inactive),> 100 µM (inactive),> 100 µM (inactive),> 100 µM (inactive),> 100 µM (inactive),> 100 µM (inactive),> 100 µM (inactive),> 100 µM (inactive),> 100 µM (inactive),> 100 µM (inactive),> 100 µM (inactive),> 100 µM (inactive),> 100 µM (inactive),> 100 µM (inactive),> 100 µM (inactive)
Cc1cc(C)c([S@@](=O)O[C@@H]2[C@H]3OC(C)(C)O[C@H]3O[C@@H]2[C@H]2COC(C)(C)O2)c(C)c1,11.8 µM (inactive),15.3 µM (inactive),20.4 µM (inactive),22.9 µM (inactive),24.8 µM (inactive),14 µM (inactive),25.6 µM (inactive),16.7 µM (inactive),26.7 µM (inactive),18.2 µM (inactive),26.6 µM (inactive),16.5 µM (inactive),29.2 µM (inactive),19.3 µM (inactive),29 µM (inactive),40 µM (inactive),20 µM (inactive),37.5 µM (inactive),19.5 µM (inactive)
O=c1c2c(-c3ccccc3)onc2n(-c2ccccc2)c(=O)n1-c1ccccc1,> 100 µM (inactive),31.2 µM (inactive),20.3 µM (inactive),18.2 µM (inactive),> 100 µM (inactive),> 100 µM (inactive),17.1 µM (inactive),> 100 µM (inactive),> 100 µM (inactive),> 100 µM (inactive),> 100 µM (inactive),32.8 µM (inactive),16.4 µM (inactive),> 100 µM (inactive),> 100 µM (inactive),27.4 µM (inactive),> 100 µM (inactive),> 100 µM (inactive),19.7 µM (inactive)
O=C(CSc1nc2ccc(Cl)cc2c(=O)n1-c1ccccc1)N/N=C1\C(=O)Nc2ccc(F)cc21,2.38 µM (inactive),1.98 µM (inactive),3 µM (inactive),2.69 µM (inactive),2.02 µM (inactive),1.78 µM (inactive),3.21 µM (inactive),2.1 µM (inactive),2.76 µM (inactive),2.43 µM (inactive),2.67 µM (inactive),2.16 µM (inactive),2.9 µM (inactive),1.76 µM (inactive),4.2 µM (inactive),2.97 µM (inactive),2.33 µM (inactive),2.07 µM (inactive),3.56 µM (inactive)
CCOC(=O)C(Cc1ccc2c(c1)CCC2)Cc1ccc2c(c1)CCC2,> 100 µM (inactive),> 100 µM (inactive),91 µM (inactive),95.9 µM (inactive),33.3 µM (inactive),20.7 µM (inactive),> 100 µM (inactive),45.4 µM (inactive),> 100 µM (inactive),42 µM (inactive),98.4 µM (inactive),> 100 µM (inactive),> 100 µM (inactive),> 100 µM (inactive),89.9 µM (inactive),> 100 µM (inactive),> 100 µM (inactive),53.1 µM (inactive),54.5 µM (inactive)
C=CCNC1=C2C[C@@H](C)C[C@H](OC)[C@H](O)[C@@H](C)/C=C(\C)[C@H](OC(N)=O)[C@@H](OC)/C=C\C=C(/C)C(=O)NC(=CC1=O)C2=O [TANESPIMYCIN],5.07 µM (inactive),0.127 µM (active),4.01 µM (inactive),0.0664 µM (active),0.0311 µM (active),0.0186 µM (active),0.0214 µM (active),0.0137 µM (active),1.11 µM (active),0.0427 µM (active),0.0199 µM (active),4.39 µM (inactive),0.177 µM (active),0.0813 µM (active),0.0745 µM (active),0.525 µM (active),0.279 µM (active),0.847 µM (active),0.0532 µM (active)
COc1cc(/C=N/n2c(-c3ccccc3)nn(C(C)=O)c2=O)cc(OC)c1OC,1.59 µM (inactive),6 µM (inactive),8.81 µM (inactive),0.748 µM (active),0.927 µM (active),2.72 µM (inactive),2.14 µM (inactive),0.684 µM (active),4.61 µM (inactive),0.19 µM (active),0.228 µM (active),9.91 µM (inactive),20 µM (inactive),5.26 µM (inactive),1.02 µM (active),2.56 µM (inactive),0.836 µM (active),8.02 µM (inactive),3.24 µM (inactive)
NC(CCC(=O)c1ccccn1)C(=O)O (stereo unspecified),> 100 µM (inactive),> 100 µM (inactive),> 100 µM (inactive),> 100 µM (inactive),> 100 µM (inactive),> 100 µM (inactive),> 100 µM (inactive),> 100 µM (inactive),> 100 µM (inactive),> 100 µM (inactive),> 100 µM (inactive),> 100 µM (inactive),> 100 µM (inactive),> 100 µM (inactive),> 100 µM (inactive),> 100 µM (inactive),> 100 µM (inactive),> 100 µM (inactive),> 100 µM (inactive)
CCOc1ccc2c(c1)C(/C(C(Cl)=C(Cl)Cl)=[N+](/[O-])OC(=O)c1ccccc1)=N2,> 100 µM (inactive),73.1 µM (inactive),15.4 µM (inactive),59.2 µM (inactive),46 µM (inactive),57.9 µM (inactive),58.7 µM (inactive),39 µM (inactive),45.7 µM (inactive),29.6 µM (inactive),37 µM (inactive),23 µM (inactive),76.4 µM (inactive),47.8 µM (inactive),49.7 µM (inactive),93.1 µM (inactive),65.8 µM (inactive),26 µM (inactive),43.2 µM (inactive)
CC(=O)O/C=C\OC1CCCC1(c1ccccc1)c1ccccc1 (stereo unspecified),18 µM (inactive),2.03 µM (inactive),7.5 µM (inactive),8.91 µM (inactive),1.98 µM (inactive),1.63 µM (inactive),2.47 µM (inactive),2.21 µM (inactive),2.4 µM (inactive),1.96 µM (inactive),2.31 µM (inactive),2.1 µM (inactive),7.13 µM (inactive),2.3 µM (inactive),8.11 µM (inactive),11.2 µM (inactive),2.42 µM (inactive),2.47 µM (inactive),3.65 µM (inactive)
